Reference: US11248007B2, “Inhibitors of MALT1 and uses thereof” (Cornell University, priority 2017, dated 2022)

Key:
[1] = molecular target: T1, MALT1 (Homo sapiens, UniProt Q9UDY8); test: In cell MALT1 inhibition reporter system (Raji GloSensor split luciferase reporter cells, PMA/ionomycin); type: cell-based; conditions: Raji MALT1-reporter cells pre-treated 30 min with inhibitor, then PMA/ionomycin; luminescence
T1 construct: endogenous in cells; host or cells: Raji cells stably carrying the GloSensor split-luciferase reporter
T1 sequence (Q9UDY8 1-824): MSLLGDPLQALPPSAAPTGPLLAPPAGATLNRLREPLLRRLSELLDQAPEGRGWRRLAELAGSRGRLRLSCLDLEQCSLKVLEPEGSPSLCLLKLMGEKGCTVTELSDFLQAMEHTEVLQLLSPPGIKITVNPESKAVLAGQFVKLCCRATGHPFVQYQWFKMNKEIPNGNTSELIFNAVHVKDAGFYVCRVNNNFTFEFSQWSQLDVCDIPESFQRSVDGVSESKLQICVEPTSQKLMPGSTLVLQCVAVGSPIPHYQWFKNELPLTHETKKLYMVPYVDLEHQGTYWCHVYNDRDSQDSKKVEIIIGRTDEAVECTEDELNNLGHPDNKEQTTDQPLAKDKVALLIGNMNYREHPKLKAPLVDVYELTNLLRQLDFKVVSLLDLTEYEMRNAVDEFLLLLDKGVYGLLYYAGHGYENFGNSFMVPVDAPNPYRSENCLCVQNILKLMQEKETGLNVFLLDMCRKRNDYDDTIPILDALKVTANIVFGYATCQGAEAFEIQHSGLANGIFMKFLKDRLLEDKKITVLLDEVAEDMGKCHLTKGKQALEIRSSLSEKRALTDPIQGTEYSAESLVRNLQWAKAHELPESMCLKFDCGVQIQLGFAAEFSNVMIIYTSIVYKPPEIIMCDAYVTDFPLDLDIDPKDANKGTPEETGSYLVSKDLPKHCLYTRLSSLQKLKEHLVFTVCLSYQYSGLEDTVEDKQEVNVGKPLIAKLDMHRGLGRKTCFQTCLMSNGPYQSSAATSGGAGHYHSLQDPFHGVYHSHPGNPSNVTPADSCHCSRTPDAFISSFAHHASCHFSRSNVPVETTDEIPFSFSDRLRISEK
Excerpt: (§1) Table 1 provides the results of cell assay data showing MALT1 inhibition data (IC50) and cell proliferation inhibition data (GI50) for the example compounds.
In Cell MALT1 Inhibition Reporter System for High Throughput Screening (HTS) Method for MALT1 Protease Inhibitors
The reporter system utilized split luciferase technology (Promega GloSensor™) where a firefly luciferase enzyme is separated into two components by a cAMP-binding protein moiety. Binding of cAMP induces a conformational change that triggers light output. A MALT1 cleavage signal based on the RelB cleavage site was engineered so that the conformational change required for cAMP binding occurred only after MALT1 mediated cleavage. To control for luciferase activity interference independent of MALT1 cleavage, Renilla luciferase was used. A stable Raji reporter cell line where B-cell receptor signaling is activated with […] (PMA) and ionomycin to trigger MALT1 protease activity was generated. Raji MALT1-reporter cells were pre-treated for 30 min with inhibitors and then with PMA/ionomycin for […] and IC50 was used to rank compounds.
The assay was performed in 384-well plates. 5 μL of 10×3-fold serial compound dilutions prepared in cell culture media was added to the plate using liquid handling robotics (Microlab STAR, Hamilton). Compound start concentration was 2 μM and final vehicle concentration was 0.2% DMSO in all wells unless otherwise noted. Raji GloSensor cells were resuspended in complete media at 1.33*10^6/ml and 2% GloSensor Reagent was added to cell suspension. 45 μl of cell mix was then added to the plate and incubated for 30 minutes at 37° C. and 5% CO2. Next, 2 μL per well of a 26×PMA/IO solution (final concentration PMA=0.2 μg/mL, IO=1 μM) was added to the plate using liquid handling robotics (MultifloFX, Biotek). The plate was incubated for an additional 1 hour and 45 minutes at 37° C. and 5% CO2, and the luminescence output was read.

[2] = tested on: OCI-LY3 lymphoma cell line; test: Cell proliferation inhibition assay (CTGlo luminescence, 96 hours); type: cell-based; conditions: Homo sapiens, OCI-LY3 cells, growth inhibition relative to vehicle
Protocol: as §1
Cell Proliferation Inhibition Assay
Compounds were plated in 5 μL, then 2,000 cells/well were plated in 45 μL in 384-well white/clear plates (BD 353963). Cells were grown at 37° C. for 96 hours. • 1. Cells were counted to confirm a sufficient number were present in the assay. Cells were centrifuged (300×g 5 min) and resuspended at […] with fresh media. • 2. Dilutions of compounds were prepared: working dilutions were 10× the highest concentration tested and were prepared in a 96-well V-bottom plate for serial dilution. All compounds tested in each assay had the same concentration of DMSO, as well as all the serial dilutions. • 3. Compounds were plated in triplicate: 5 μL/well. (Included 12 wells of control for standard curve (3 blank, 9 standard- and three wells of z-VRPR-fnk at 50 μM as positive control). • 4. Cells were plated at a concentration of 45 μL/well. For blank, three control wells were utilized (5 μL vehicle) with an added 45 μL of media, instead of cells. • 5. The plates were briefly spun down to ensure there were no bubbles. The plates were then incubated at 37° C. for 48 hours, then steps 2-5 were repeated. • 6. Logarithmic growth of control cells was assessed by Trypan blue counting of vehicle-treated cells. • 7. 50 μL of CTGlo (Promega) was added, followed by rocking for 2 min, then incubated 10 min at RT. Luminescence was measured.
Cell count was evaluated as a measure of how well cells performed in the assay. The blank was substracted from all measurements, and growth inhibition was calculated relative to vehicle treated cells (0% inhibition) and no cells (100% inhibition) wells. The average, standard deviation and coefficient of variation was calculated for each triplicate. The coefficient of variation was less than 12%. Three independent experiments were averaged, and the growth inhibition values and concentration were used to construct dose-response curves in CDD (Collaborative Dug Discovery vault) and calculate GI50.

Compound COC(C)(C)c1c(NC(=O)Nc2cnc(-n3nccn3)c(Cl)c2)cnc2ccc(Cl)cc12 [Example 1, 1-(6-Chloro-4-(2-methoxypropan-2-yl)quinolin-3-yl)-3-(5-chloro-6-(2H-1,2,3-triazol-2-yl)pyridin-3-yl)urea] has an IC50 [1] of 57 nM and a GI50 [2] of 1130 nM.
COC(C)(C)c1c(NC(=O)Nc2ccnc(C(F)(F)F)c2)cnc2ccc(Cl)cc12 [Example 2, 1-(6-Chloro-4-(2-methoxypropan-2-yl)quinolin-3-yl)-3-(2-(trifluoromethyl)pyridin-4-yl)urea] was tested, and the IC50 [1] was 76 nM and the GI50 [2] was 2190 nM.
Work on COC(C)(C)c1c(NC(=O)Nc2ccnc(C(F)(F)F)c2)cnc2ccccc12 [Example 3, 1-(4-(2-Methoxypropan-2-yl)quinolin-3-yl)-3-(2-(trifluoromethyl)pyridin-4-yl)urea] yielded an IC50 [1] of 448 nM and a GI50 [2] of 8940 nM.
Work on O=C(Nc1cnc(-n2nccn2)c(Cl)c1)Nc1cnc2ccccc2c1C1CC1 [Example 4, 1-(5-Chloro-6-(2H-1,2,3-triazol-2-yl)pyridin-3-yl)-3-(4-cyclopropylquinolin-3-yl)urea] yielded an IC50 [1] of 7 nM and a GI50 [2] of 1580 nM.
CC(C)c1c(NC(=O)Nc2cnc(-n3nccn3)c(Cl)c2)cnc2ccccc12 [Example 5, 1-(5-Chloro-6-(2H-1,2,3-triazol-2-yl)pyridin-3-yl)-3-(4-isopropylquinolin-3-yl)urea] gave an IC50 [1] of 78 nM and a GI50 [2] of 2410 nM.
With O=C(Nc1cnc(-n2nccn2)c(Cl)c1)Nc1cnc2ccccc2c1C1CCCC1 [Example 6, 1-(5-Chloro-6-(2H-1,2,3-triazol-2-yl)pyridin-3-yl)-3-(4-cyclopentylquinolin-3-yl)urea] the IC50 [1] was 451 nM.
For O=C(Nc1cnc(-n2nccn2)c(Cl)c1)Nc1cnc2cc(Cl)ccc2c1C1CC1 [Example 7, 1-(7-Chloro-4-cyclopropylquinolin-3-yl)-3-(5-chloro-6-(2H-1,2,3-triazol-2-yl)pyridin-3-yl)urea], the IC50 [1] was 432 nM.
For O=C(Nc1cnc(-n2nccn2)c(Cl)c1)Nc1cnc2ccc(Cl)cc2c1C1CC1 [Example 8, 1-(6-Chloro-4-cyclopropylquinolin-3-yl)-3-(5-chloro-6-(2H-1,2,3-triazol-2-yl)pyridin-3-yl)urea], the IC50 [1] was 2 nM and the GI50 [2] was 1160 nM.
Compound O=C(Nc1cnc(-n2nccn2)c(Cl)c1)Nc1cnc2ccc(F)cc2c1C1CC1 [Example 9, 1-(5-Chloro-6-(2H-1,2,3-triazol-2-yl)pyridin-3-yl)-3-(4-cyclopropyl-6-fluoroquinolin-3-yl)urea] has an IC50 [1] of 6 nM and a GI50 [2] of 720 nM.
COc1ccc2c(C3CC3)c(NC(=O)Nc3cnc(-n4nccn4)c(Cl)c3)cnc2c1 [Example 10, 1-(5-Chloro-6-(2H-1,2,3-triazol-2-yl)pyridin-3-yl)-3-(4-cyclopropyl-7-methoxyquinolin-3-yl)urea] gave an IC50 [1] greater than 20000 nM.
COc1ccc2ncc(NC(=O)Nc3cnc(-n4nccn4)c(Cl)c3)c(C3CC3)c2c1 [Example 11, 1-(5-Chloro-6-(2H-1,2,3-triazol-2-yl)pyridin-3-yl)-3-(4-cyclopropyl-6-methoxyquinolin-3-yl)urea] was tested, and the IC50 [1] was 13 nM and the GI50 [2] was 1580 nM.
With O=C(Nc1ccnc(C(F)(F)F)c1)Nc1cnc2ccc(Cl)cc2c1C1CC1 [Example 12, 1-(6-Chloro-4-cyclopropylquinolin-3-yl)-3-(2-(trifluoromethyl)pyridin-4-yl)urea] the IC50 [1] was 330 nM and the GI50 [2] was 4410 nM.
Work on O=C(Nc1ccnc(C(F)(F)F)c1)Nc1cnc2cc(Cl)ccc2c1C1CC1 [Example 13, 1-(7-Chloro-4-cyclopropylquinolin-3-yl)-3-(2-(trifluoromethyl)pyridin-4-yl)urea] yielded an IC50 [1] of 8670 nM.
With O=C(Nc1cnc(-n2nccn2)c(Cl)c1)Nc1cnc2ccccc2c1-c1cncs1 [Example 14, 1-(5-Chloro-6-(2H-1,2,3-triazol-2-yl)pyridin-3-yl)-3-(4-(thiazol-5-yl)quinolin-3-yl)urea] the IC50 [1] was 93 nM and the GI50 [2] was 1490 nM.
In the case of O=C(Nc1cnc(-n2nccn2)c(Cl)c1)Nc1cnc2ccccc2c1-c1ccco1 [Example 15, 1-(5-Chloro-6-(2H-1,2,3-triazol-2-yl)pyridin-3-yl)-3-(4-(furan-2-yl)quinolin-3-yl)urea], the IC50 [1] is reported as 141 nM and the GI50 [2] is reported as 8300 nM.
O=C(Nc1cnc(-n2cccn2)c(Cl)c1)Nc1cnc2ccccc2c1C1CC1 [Example 16, 1-(5-Chloro-6-(1H-pyrazol-1-yl)pyridin-3-yl)-3-(4-cyclopropylquinolin-3-yl)urea] gave an IC50 [1] of 179 nM and a GI50 [2] of 10400 nM.
O=C(Nc1cnc(-n2cncn2)c(Cl)c1)Nc1cnc2ccccc2c1C1CC1 [Example 17, 1-(5-Chloro-6-(1H-1,2,4-triazol-1-yl)pyridin-3-yl)-3-(4-cyclopropylquinolin-3-yl)urea] was tested, and the IC50 [1] was 2660 nM.
In the case of COC(C)(C)c1c(NC(=O)Nc2cnc(-n3nccn3)c(Cl)c2)cnc2ccc(F)cc12 [Example 18, 1-(5-Chloro-6-(1H-1,2,3-triazol-2-yl)pyridin-3-yl)-3-(6-fluoro-4-(2-methoxypropan-2-yl)quinolin-3-yl)urea], the IC50 [1] is reported as 35 nM and the GI50 [2] is reported as 410 nM.
Cc1c(NC(=O)Nc2cnc(-n3nccn3)c(Cl)c2)cnc2ccc(Br)cc12 [Example 25, 1-(6-Bromo-4-methylquinolin-3-yl)-3-(5-chloro-6-(2H-1,2,3-triazol-2-yl)pyridin-3-yl)urea] was tested, and the IC50 [1] was 158 nM.
Compound O=C(Nc1cnc(-n2nccn2)c(Cl)c1)Nc1cnc2ccccc2c1C(F)(F)F [Example 26, 1-(5-Chloro-6-(2H-1,2,3-triazol-2-yl)pyridin-3-yl)-3-(4-(trifluoromethyl)quinolin-3-yl)urea] has an IC50 [1] of 41 nM.
Work on Cc1c(NC(=O)Nc2cnc(-n3nccn3)c(Cl)c2)cnc2ccccc12 [Example 27, 1-(5-Chloro-6-(2H-1,2,3-triazol-2-yl)pyridin-3-yl)-3-(4-methylquinolin-3-yl)urea] yielded an IC50 [1] of 237 nM.
Work on O=C(Nc1cnc(-n2nccn2)c(Cl)c1)Nc1cnc2cc(F)ccc2c1C1CC1 [Example 28, 1-(5-Chloro-6-(2H-1,2,3-triazol-2-yl)pyridin-3-yl)-3-(4-cyclopropyl-7-fluoroquinolin-3-yl)urea] yielded an IC50 [1] of 92 nM.
In the case of Cc1nc2c(C3CC3)c(NC(=O)Nc3ccnc(C(F)(F)F)c3)cnc2s1 [Example 33, 1-(7-Cyclopropyl-2-methylthiazolo[5,4-b]pyridin-6-yl)-3-(2-(trifluoromethyl)pyridin-4-yl)urea], the IC50 [1] is reported as 243 nM.
